Where two headings read alike, the source gives them in different places.
Molecular target: T1, Dihydrofolate reductase (DHFR) (Escherichia coli, UniProt P0ABQ4)
T1 construct: gift of Professor Eric Brown (McMaster University)
Type: binding, E. coli
Conditions: for retention (elution) time: FIG. 19 Panel B, column with 50 pmol DHFR initial loading, compounds infused at 20 nM, fluorescein 100 nM; for elution time: first run
Description: A second aqueous solution of 50 mM HEPES at pH 7.5 was prepared containing 16% (w/v) PEO (MW=10 000) and 0.6% (v/v) APTES. This aqueous solution also contained ca. 20 μM of DHFR. […] The mixture underwent spinodal decomposition (phase separation) in about 2-3 min followed by silica polymerization (˜10 min) to generate a hydrated macroporous monolithic column containing entrapped protein. After loading the sol-gel mixture, the monolithic columns were aged for a minimum of 5 days at 4 C and then cut into 10 cm lengths before use. In some cases, the APTES present in the columns was replaced with a final concentration of either 0.03% polyallylamine (PAM, MW 17,000) or 0.3% dimethyldimethoxysilane (DMDMS) to examine the effects of surface derivatization on non-selective retention.
Syringe pumps (Harvard Instruments PhD 2000) were used to deliver solutions, and a flow-switching valve was used to toggle between the assay buffer and the solution containing the compound mixture. This solution was then pumped through the column to achieve equilibrium. Effluent was combined with suitable organic modifiers to assist in the generation of a stable electrospray and detectability of the sprayed components using a triple-quadrupole MS system (Sciex API 3000). This configuration allows for maximum flexibility in compound introduction. Full operation of FAC-MS methods requires frequent flow switching between two solutions connected to the head of the column. An Upchurch microinjection valve allows syringe contents to be exchanged during operation. […] All other connections between components were achieved using fused silica tubing.
Before the first run, the column was flushed with 0.05 M NH4OAc buffer (pH 6.6, 100 mM NaCl) for 30 min at different flow rates (from 1 to 5 μL.min^−1) to remove any glycerol and non-entrapped protein and then equilibrated with 2 mM NH4OAc for 30 min at different flow rates (from 1 to 5 μL.min^−1). All compounds tested were present in 2 mM NH4OAc and were delivered at a rate of 5 μL.min^−1 using the syringe pump. The makeup flow (used to assist in the generation of a stable electrospray) consisted of methanol containing 10% (v/v) NH4OAc buffer (2 mM) and was delivered at 5 μL.min^−1.
In each case, the data were fit to the following equation:^17 [formula]
where V0 is the void volume (μL), V is the retention volume (μL), [A] is the analyte concentration (μM), Kd is the binding constant of the ligand to the protein (μM) and Bt is the total picomoles of active protein in the column.

[1] = FIG. 21 Panel A, in 2 mM ammonium acetate
[2] = FIG. 21 Panel B, second column cut from the same capillary, same infusion

SMILES	retention (elution) time [min]	elution time [1] [min]	elution time [2] [min]
O=c1ccc2ccccc2o1 [coumarin]	2	2.7	2.6
Nc1nc2ncc(CNc3ccc(C(=O)N[C@@H](CCC(=O)O)C(=O)O)cc3)nc2c(=O)[nH]1 [folic acid]	7	8.9	8.4

— patent US20040211730A1, “Methods and compounds for controlling the morphology and shrinkage of silica derived from polyol-modified silanes” (priority 2002, published 2004)
